Data reported in patent publication US20200281918A1, “CALCIUM RELEASE-ACTIVATED CALCIUM CHANNEL MODULATORS FOR TREATING HEMATOLOGICAL AND SOLID CANCERS” (Rhizen Pharmaceuticals SA, priority 2017, published 2020).

Assays:
[1] = Body weight in NCI-H460 xenograft model; type: in vivo, female Balb/c nude mice; conditions: oral 30 mg/kg BID, 15 day period, Balb/c nude mice
Method: (§1) The anti-tumor effect of Compound (A) was determined as a single agent in a NCI-H460 human non-small cell lung cancer xenografts model using female Balb/c nude mice. 10^6 cells were injected into the flank region. A week after tumor cell injection, mice either received the vehicle, oral administration of Compound (A) at 30 mg/kg BID or intravenous administration of taxol at 10 mg/kg Q3D (every three days) across a 15 day period. At the end of the study period, animals were sacrificed and the tumors harvested.

[2] = system: NCI-H460 human non-small cell lung tumor xenografts; assay: NCI-H460 human non-small cell lung cancer xenograft model; type: in vivo, female Balb/c nude mice
Method: as §1

[3] = system: ARH-77; assay: Apoptosis (activated caspase-3 antibody) panel; type: cell-based
Method: (§2) An antibody to activated caspase-3 was used to label cells from early to late stage apoptosis. The concentration of Compound (A) that caused a 2-fold induction in the caspase-3 signal was determined, indicating a significant apoptosis induction.

[4] = system: HCT-116; assay: Apoptosis (activated caspase-3 antibody) panel; type: cell-based
Method: as §2

[5] = system: C32; assay: Apoptosis (activated caspase-3 antibody) panel; type: cell-based
Method: as §2

[6] = system: MDA MB 231; assay: Apoptosis (activated caspase-3 antibody) panel; type: cell-based
Method: as §2

[7] = system: PANC-1; assay: Apoptosis (activated caspase-3 antibody) panel; type: cell-based
Method: as §2

[8] = system: PC-3; assay: Apoptosis (activated caspase-3 antibody) panel; type: cell-based
Method: as §2

[9] = system: A7; assay: Apoptosis (activated caspase-3 antibody) panel; type: cell-based
Method: as §2

[10] = system: AsPC-1; assay: Apoptosis (activated caspase-3 antibody) panel; type: cell-based
Method: as §2

[11] = system: Hs 578T; assay: Apoptosis (activated caspase-3 antibody) panel; type: cell-based
Method: as §2

[12] = system: SH-4; assay: Apoptosis (activated caspase-3 antibody) panel; type: cell-based
Method: as §2

[13] = system: SKO-007; assay: Apoptosis (activated caspase-3 antibody) panel; type: cell-based
Method: as §2

[14] = system: RD; assay: Apoptosis (activated caspase-3 antibody) panel; type: cell-based
Method: as §2

[15] = system: AGS; assay: Apoptosis (activated caspase-3 antibody) panel; type: cell-based
Method: as §2

[16] = system: SW1088; assay: Apoptosis (activated caspase-3 antibody) panel; type: cell-based
Method: as §2

[17] = system: G-402; assay: Apoptosis (activated caspase-3 antibody) panel; type: cell-based
Method: as §2

[18] = system: MDA MB 468; assay: Apoptosis (activated caspase-3 antibody) panel; type: cell-based
Method: as §2

[19] = system: T98G; assay: Apoptosis (activated caspase-3 antibody) panel; type: cell-based
Method: as §2

[20] = system: RKO-AS45-1; assay: Apoptosis (activated caspase-3 antibody) panel; type: cell-based
Method: as §2

[21] = system: 769-P; assay: Apoptosis (activated caspase-3 antibody) panel; type: cell-based
Method: as §2

[22] = system: U266B1; assay: Apoptosis (activated caspase-3 antibody) panel; type: cell-based
Method: as §2

[23] = system: SK-BR-3; assay: Apoptosis (activated caspase-3 antibody) panel; type: cell-based
Method: as §2

[24] = system: DB; assay: Apoptosis (activated caspase-3 antibody) panel; type: cell-based
Method: as §2

[25] = system: NCI-H661; assay: Apoptosis (activated caspase-3 antibody) panel; type: cell-based
Method: as §2

[26] = system: ACHN; assay: Apoptosis (activated caspase-3 antibody) panel; type: cell-based
Method: as §2

[27] = system: RKOE6; assay: Apoptosis (activated caspase-3 antibody) panel; type: cell-based
Method: as §2

[28] = system: A427; assay: Apoptosis (activated caspase-3 antibody) panel; type: cell-based
Method: as §2

[29] = system: 786-O; assay: Apoptosis (activated caspase-3 antibody) panel; type: cell-based
Method: as §2

[30] = system: Wi38; assay: Apoptosis (activated caspase-3 antibody) panel; type: cell-based
Method: as §2

[31] = system: DOHH-2; assay: Apoptosis (activated caspase-3 antibody) panel; type: cell-based
Method: as §2

[32] = system: Calu6; assay: Apoptosis (activated caspase-3 antibody) panel; type: cell-based
Method: as §2

[33] = system: A549 cells; assay: Scratch-wound migration assay; type: cell-based; conditions: 10% FBS, 72 hours, 10-10,000 nM (FIG. 2)
Method: A scratch was made to a serum-starved monolayer of A549 cells followed by washing and incubation with a desired concentration of Compound (A) in media with 10% fetal bovine serum (FBS) for 72 hours. The distance between the two edges of the wound was measured and percent inhibition was calculated with respect to a control.

[34] = system: panel of cancer cell lines; assay: Anti-proliferative effect (MTT assay); type: cell-based; conditions: majority of the cell lines tested, 48-72 hours, MTT (FIG. 3)
Method: (§3) A panel of cancer cell lines representing various different types of cancers were plated in 96-well plates and incubated with desired concentrations of Compound (A) for 48-72 hours. At the end of the incubation period, MTT ((3-(4,5-dimethylthiazol-2-yl)-2,5-diphenyltetrazolium bromide)) was added. The plates were placed on a shaker for 5 minutes to mix the formazan and the optical density at 560 nm was measured using a spectrophotometer. Data were plotted using Graphpad Prism for calculation of the GI50 concentrations.

[35] = system: normal lung cell line WI-38; assay: Anti-proliferative effect (MTT assay); type: cell-based; conditions: WI-38, MTT, 48-72 hours
Method: as §3

[36] = system: phospho-mTOR; assay: Western blotting of markers in Jurkat cells; type: cell-based; conditions: 24 hours, 10, 100, 1000 nM (FIG. 4)
Method: (§4) Cell lines were plated in RPMI media at a pre-determined density in a 6-well plate. After overnight incubation, cells were treated with Compound (A) for 24 hours. Cell lysates were analyzed for the expression of markers by Western Blotting. Gapdh, mTOR and S6 were used as a loading control for NFkB, phospho-mTOR, and phospho-S6 respectively. Lanes: A: Blank; B: 10 nM; C: 100 nM; D: 1000 nM.

[37] = system: NFkB; assay: Western blotting of markers in Jurkat cells; type: cell-based; conditions: 24 hours, 10, 100, 1000 nM (FIG. 4)
Method: as §4

[38] = system: phospho-S6; assay: Western blotting of markers in Jurkat cells; type: cell-based; conditions: 24 hours, 10, 100, 1000 nM (FIG. 4)
Method: as §4

[39] = system: NCI-H1975 cells; assay: Induction of Caspase 3 (Millipore Caspase-3 kit, fluorimetric); type: cell-based; conditions: 48 hours, 10-10,000 nM (FIG. 1)
Method: (§5) NCH-H460, A549 and NCI-H1975 cells were incubated with desired concentrations of the test compound for 48 hours. An equal number of cells per well (0.3×10^6 cells) were used. The increase in apoptosis manifested by an elevation in caspase-3 levels was determined using a Caspase-3 kit from Millipore. Induction of Caspase 3 by Compound (A) was measured fluorimetrically.

[40] = system: NCH-H460 cells; assay: as above; type: cell-based; conditions: 48 hours, 10-10,000 nM (FIG. 1)
Method: as §5

[41] = system: A549 cells; assay: as above; type: cell-based; conditions: 48 hours, 10-10,000 nM (FIG. 1)
Method: as §5

[42] = concentration causing 2-fold induction in caspase-3 signal

**Q.** What does the source list for `O=C(Cc1ccc2ncccc2c1)Nc1ccc(-n2nc(C3CC3)cc2C2CC2)cc1` [Compound (A), N-(4-(3,5-dicyclopropyl-1H-pyrazol-1-yl)phenyl)-2-(quinolin-6-yl)acetamide]?
**A.** mice body weight [1]: did not affect the mice body weight; tumor growth inhibition (TGI) value ([2]; day 15, oral 30 mg/kg BID): 38.3%; inhibition of tumor growth ([2]; oral 30 mg/kg BID, 15 day period): significant inhibition of tumor growth; Apoptosis Emax [3]: 5.36; G1/S cell cycle block [3]: 7.02 µM; Apoptosis 2 Fold Induction [3, 42]: 30.74 µM; Apoptosis Emax [4]: 20.36; G1/S cell cycle block [4]: 1.89 µM; Apoptosis 2 Fold Induction [4, 42]: 2.97 µM; Apoptosis Emax [5]: 4.7; G1/S cell cycle block [5]: 10.7 µM; Apoptosis 2 Fold Induction [5, 42]: 80.52 µM; Apoptosis Emax [6]: 4.35; Apoptosis 2 Fold Induction [6, 42]: 18.4 µM; Apoptosis Emax [7]: 11.49; G1/S cell cycle block [7]: 7.32 µM; Apoptosis 2 Fold Induction [7, 42]: 8.83 µM; Apoptosis Emax [8]: 12.31; G1/S cell cycle block [8]: 8.13 µM; Apoptosis 2 Fold Induction [8, 42]: 2.05 µM; Apoptosis Emax [9]: 55.74; G1/S cell cycle block [9]: 2.78 µM; Apoptosis 2 Fold Induction [9, 42]: 2.22 µM; Apoptosis Emax [10]: 2.07; G1/S cell cycle block [10]: 3.64 µM; Apoptosis Emax [11]: 1.19; G1/S cell cycle block [11]: 4.56 µM; Apoptosis Emax [12]: 72.67; G1/S cell cycle block [12]: 16.6 µM; Apoptosis 2 Fold Induction [12, 42]: 15.59 µM; Apoptosis Emax [13]: 15.45; G1/S cell cycle block [13]: 5.2 µM; Apoptosis 2 Fold Induction [13, 42]: 6.42 µM; Apoptosis Emax [14]: 3.03; G1/S cell cycle block [14]: 7.08 µM; Apoptosis 2 Fold Induction [14, 42]: 11.45 µM; Apoptosis Emax [15]: 26.62; G1/S cell cycle block [15]: 3.16 µM; Apoptosis 2 Fold Induction [15, 42]: 5.04 µM; Apoptosis Emax [16]: 8.54; G1/S cell cycle block [16]: 33 µM; Apoptosis 2 Fold Induction [16, 42]: 75.51 µM; Apoptosis Emax [17]: 5.14; G1/S cell cycle block [17]: 3.74 µM; Apoptosis 2 Fold Induction [17, 42]: 3.11 µM; Apoptosis Emax [18]: 8.86; G1/S cell cycle block [18]: 7.81 µM; Apoptosis 2 Fold Induction [18, 42]: 3.02 µM; Apoptosis Emax [19]: 21.74; G1/S cell cycle block [19]: 41.3 µM; Apoptosis 2 Fold Induction [19, 42]: 53.96 µM; Apoptosis Emax [20]: 40.99; G1/S cell cycle block [20]: 3.94 µM; Apoptosis 2 Fold Induction [20, 42]: 3.15 µM; Apoptosis Emax [21]: 10.3; G1/S cell cycle block [21]: 4.82 µM; Apoptosis 2 Fold Induction [21, 42]: 24.71 µM; Apoptosis Emax [22]: 4.88; G1/S cell cycle block [22]: 3.56 µM; Apoptosis 2 Fold Induction [22, 42]: 11.11 µM; Apoptosis Emax [23]: 8.32; G1/S cell cycle block [23]: 6.11 µM; Apoptosis 2 Fold Induction [23, 42]: 11.6 µM; Apoptosis Emax [24]: 16.8; G1/S cell cycle block [24]: 7.03 µM; Apoptosis 2 Fold Induction [24, 42]: 4.08 µM; Apoptosis Emax [25]: 13.23; G1/S cell cycle block [25]: 2.8 µM; Apoptosis 2 Fold Induction [25, 42]: 17.64 µM; Apoptosis Emax [26]: 2.86; G1/S cell cycle block [26]: 10.3 µM; Apoptosis 2 Fold Induction [26, 42]: 11.23 µM; Apoptosis Emax [27]: 14.43; G1/S cell cycle block [27]: 4.85 µM; Apoptosis 2 Fold Induction [27, 42]: 4.64 µM; Apoptosis Emax [28]: 16.1; G1/S cell cycle block [28]: 3.52 µM; Apoptosis 2 Fold Induction [28, 42]: 2.77 µM; Apoptosis Emax [29]: 4.67; G1/S cell cycle block [29]: 4.4 µM; Apoptosis 2 Fold Induction [29, 42]: 10.31 µM; Apoptosis Emax [30]: 0.49; G1/S cell cycle block [30]: 8.82 µM; Apoptosis Emax [31]: 6.13; G1/S cell cycle block [31]: 3.23 µM; Apoptosis 2 Fold Induction [31, 42]: 3.03 µM; Apoptosis Emax [32]: 3.34; G1/S cell cycle block [32]: 10.5 µM; Apoptosis 2 Fold Induction [32, 42]: 3.73 µM; FBS induced migration of A549 cells [33]: dose-dependent reduction; GI50 [34]: 300 to 3000 nM; growth of normal lung cell line WI-38 [35]: did not affect growth; phospho-mTOR expression (Western blot) [36]: dose-dependent reduction; NFkB expression (Western blot) [37]: dose-dependent reduction; phospho-S6 expression (Western blot) [38]: dose-dependent reduction; caspase-3 induction [39]: dose-dependent increase; caspase-3 induction [40]: dose-dependent increase; caspase-3 induction [41]: dose-dependent increase

**Q.** For `CC(=O)O[C@H]1C(=O)[C@@]2(C)[C@H]([C@H](OC(=O)c3ccccc3)[C@]3(O)C[C@H](OC(=O)[C@H](O)[C@@H](NC(=O)c4ccccc4)c4ccccc4)C(C)=C1C3(C)C)[C@]1(OC(C)=O)CO[C@@H]1C[C@@H]2O` [taxol, reference compound], which “tumor growth inhibition (TGI) value” ([2]; day 15, intravenous 10 mg/kg Q3D) is on record?
**A.** 36.7%
